Source: ChEMBL document CHEMBL1201862, “PubChem BioAssay data set” (2004)
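In this assay, cells in 96-well plates receive the compound at five concentrations for 48 hours. Endpoints are linearly interpolated between the surrounding concentrations. The concentration for 50% growth inhibition is given as GI50.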 Active and inactive are the calls of the source. Cut-off read from the data, not from the text of the source: active = GI50 up to about 1.1 µM and inactive = higher.

Tests used:
Assay in all cases: NCI-60 cell line screen, 48 h
Malme-3M = tested on: Malme-3M
A498 = tested on: A498
NCI-H226 = tested on: NCI-H226
SR = tested on: SR
UACC-257 = tested on: UACC-257
LOX IMVI = tested on: LOX IMVI
CAKI-1 = tested on: CAKI-1
HCT-116 = tested on: HCT-116
786-0 = tested on: 786-0
SK-OV-3 = tested on: SK-OV-3
SNB-19 = tested on: SNB-19
BT-549 = tested on: BT-549
HOP-62 = tested on: HOP-62
COLO 205 = tested on: COLO 205
OVCAR-5 = tested on: OVCAR-5
OVCAR-8 = tested on: OVCAR-8
M14 = tested on: M14
MDA-MB-231 = tested on: MDA-MB-231
EKVX = tested on: EKVX
HL-60 = tested on: HL-60
UO-31 = tested on: UO-31
HT-29 = tested on: HT-29
NCI/ADR-RES = tested on: NCI/ADR-RES
HOP-92 = tested on: HOP-92
HCT-15 = tested on: HCT-15
MCF7 = tested on: MCF7
SK-MEL-2 = tested on: SK-MEL-2
HCC 2998 = tested on: HCC 2998
OVCAR-4 = tested on: OVCAR-4
KM12 = tested on: KM12
ACHN = tested on: ACHN
RXF 393 = tested on: RXF 393
DU-145 = tested on: DU-145
SF-539 = tested on: SF-539
K562 = tested on: K562
SW-620 = tested on: SW-620
SN12C = tested on: SN12C
MOLT-4 = tested on: MOLT-4
PC-3 = tested on: PC-3
TK-10 = tested on: TK-10
SNB-75 = tested on: SNB-75
OVCAR-3 = tested on: OVCAR-3
SF-295 = tested on: SF-295
IGROV-1 = tested on: IGROV-1
MDA-MB-435 = tested on: MDA-MB-435
MDA-N = tested on: MDA-N
A549 = tested on: A549
Hs-578T = tested on: Hs-578T
SF-268 = tested on: SF-268
UACC-62 = tested on: UACC-62
SK-MEL-28 = tested on: SK-MEL-28
SK-MEL-5 = tested on: SK-MEL-5
CCRF-CEM = tested on: CCRF-CEM
RPMI-8226 = tested on: RPMI-8226
T47D = tested on: T47D
NCI-H23 = tested on: NCI-H23
NCI-H460 = tested on: NCI-H460
U-251 = tested on: U-251
NCI-H522 = tested on: NCI-H522

Measured: GI50

CC(C)=CCC\C(C)=C/C=C/C(C)=C\C=C\C(C)=C/C=C/C=C(C)\C=C\C=C(C)/C=C/C=C(/C)CCC=C(C)C
> 100000 nM: HCT-15
inactive: Malme-3M > 100000 nM | A498 > 100000 nM | NCI-H226 > 100000 nM | SR > 100000 nM | UACC-257 > 100000 nM | LOX IMVI > 100000 nM | CAKI-1 > 100000 nM | HCT-116 > 100000 nM | 786-0 > 100000 nM | SK-OV-3 > 100000 nM | SNB-19 > 100000 nM | BT-549 > 100000 nM | HOP-62 > 100000 nM | COLO 205 > 100000 nM | OVCAR-5 > 100000 nM | OVCAR-8 > 100000 nM | M14 > 100000 nM | MDA-MB-231 > 100000 nM | EKVX > 100000 nM | HL-60 > 100000 nM | UO-31 > 100000 nM | HT-29 > 100000 nM | NCI/ADR-RES > 100000 nM | HOP-92 > 100000 nM | MCF7 > 100000 nM | SK-MEL-2 > 100000 nM | HCC 2998 > 100000 nM | OVCAR-4 > 100000 nM | KM12 > 100000 nM | ACHN > 100000 nM | RXF 393 > 100000 nM | DU-145 > 100000 nM | SF-539 > 100000 nM | K562 > 100000 nM | SW-620 > 100000 nM | SN12C > 100000 nM | MOLT-4 > 100000 nM | PC-3 > 100000 nM | TK-10 > 100000 nM | SNB-75 > 100000 nM | OVCAR-3 > 100000 nM | SF-295 > 100000 nM | IGROV-1 > 100000 nM | MDA-MB-435 > 100000 nM | MDA-N > 100000 nM | A549 > 100000 nM | Hs-578T > 100000 nM | SF-268 > 100000 nM | UACC-62 > 100000 nM | SK-MEL-28 > 100000 nM | SK-MEL-5 > 100000 nM | CCRF-CEM > 100000 nM

C/C(=N\Nc1nc2cc(F)ccc2s1)c1ccccn1
< 22 nM: HCT-15
active: Malme-3M < 10 nM | NCI-H226 < 24.2 nM | RPMI-8226 136 nM | SR 31.3 nM | UACC-257 < 18.2 nM | CAKI-1 < 10 nM | HCT-116 < 16.1 nM | 786-0 43.9 nM | SK-OV-3 95.3 nM | SNB-19 391 nM | T47D < 10 nM | HOP-62 381 nM | COLO 205 < 10 nM | OVCAR-5 716 nM | OVCAR-8 19.4 nM | M14 17.1 nM | MDA-MB-231 38.9 nM | EKVX < 14.1 nM | HL-60 < 10 nM | UO-31 19.2 nM | HT-29 < 10 nM | NCI-H23 35.2 nM | NCI/ADR-RES 27.4 nM | HOP-92 35.2 nM | NCI-H460 41.2 nM | MCF7 19.9 nM | OVCAR-4 1060 nM | KM12 165 nM | ACHN < 10 nM | DU-145 344 nM | SF-539 90.6 nM | K562 < 14.7 nM | SW-620 < 10 nM | SN12C 10.1 nM | MOLT-4 10.2 nM | PC-3 39.5 nM | SNB-75 661 nM | OVCAR-3 28.4 nM | SF-295 275 nM | U-251 40.2 nM | IGROV-1 19.8 nM | MDA-MB-435 303 nM | A549 260 nM | Hs-578T 335 nM | SF-268 30.1 nM | UACC-62 123 nM | SK-MEL-28 294 nM | SK-MEL-5 53 nM | NCI-H522 < 10 nM | CCRF-CEM < 10 nM
inactive: A498 12100 nM | BT-549 1190 nM | SK-MEL-2 1540 nM | HCC 2998 1920 nM | RXF 393 1260 nM
